From ChEMBL document CHEMBL5046315, “CRCM5484: A BET-BDII Selective Compound with Differential Anti-leukemic Drug Modulation” (J Med Chem, 2022)
Active and inactive are the calls of the source.

Experiments:
Type in all cases: functional, cell-based
MOLM-14 [1] = assay: Potentiation of vincristine-induced antileukemic activity against human MOLM-14 cells at 4.3 uM in presence of bone-marrow derived stromal cell-conditioned medium
CCRF-CEM [2] = assay: Potentiation of AraC-induced antileukemic activity against human CCRF-CEM cells at 4.3 uM in presence of bone-marrow derived stromal cell-conditioned medium
U-937 [3] = assay: Potentiation of vermurafenib-induced antileukemic activity against human U-937 cells at 4.3 uM in presence of bone-marrow derived stromal cell-conditioned medium
MOLM-14 [4] = assay: Potentiation of idarubicin-induced antileukemic activity against human MOLM-14 cells at 4.3 uM in presence of bone-marrow derived stromal cell-conditioned medium
MOLM-14 [5] = assay: Potentiation of SGI-1027-induced antileukemic activity against human MOLM-14 cells at 4.3 uM in presence of bone-marrow derived stromal cell-conditioned medium
U-937 [6] = assay: Potentiation of rigosertib-induced antileukemic activity against human U-937 cells at 4.3 uM in presence of bone-marrow derived stromal cell-conditioned medium
U-937 [7] = assay: Potentiation of vincristine-induced antileukemic activity against human U-937 cells at 4.3 uM in presence of bone-marrow derived stromal cell-conditioned medium
CCRF-CEM [8] = assay: Potentiation of ruxolitinib-induced antileukemic activity against human CCRF-CEM cells at 4.3 uM in presence of bone-marrow derived stromal cell-conditioned medium
U-937 [9] = assay: Potentiation of nelarabine-induced antileukemic activity against human U-937 cells at 4.3 uM in presence of bone-marrow derived stromal cell-conditioned medium
CCRF-CEM [10] = assay: Potentiation of clofarabine-induced antileukemic activity against human CCRF-CEM cells at 4.3 uM in presence of bone-marrow derived stromal cell-conditioned medium
CCRF-CEM [11] = assay: Potentiation of VX680-induced antileukemic activity against human CCRF-CEM cells at 4.3 uM in presence of bone-marrow derived stromal cell-conditioned medium
MOLM-14 [12] = assay: Potentiation of GSK126-induced antileukemic activity against human MOLM-14 cells at 4.3 uM in presence of bone-marrow derived stromal cell-conditioned medium
CCRF-CEM [13] = assay: Potentiation of olaparid-induced antileukemic activity against human CCRF-CEM cells at 4.3 uM in presence of bone-marrow derived stromal cell-conditioned medium
U-937 [14] = assay: Potentiation of ponatinib-induced antileukemic activity against human U-937 cells at 4.3 uM in presence of bone-marrow derived stromal cell-conditioned medium
CCRF-CEM [15] = assay: Potentiation of lapatinib-induced antileukemic activity against human CCRF-CEM cells at 4.3 uM in presence of bone-marrow derived stromal cell-conditioned medium
CCRF-CEM [16] = assay: Potentiation of vincristine-induced antileukemic activity against human CCRF-CEM cells at 4.3 uM in presence of bone-marrow derived stromal cell-conditioned medium
MOLM-14 [17] = assay: Potentiation of sorafenib-induced antileukemic activity against human MOLM-14 cells at 4.3 uM in presence of bone-marrow derived stromal cell-conditioned medium
MOLM-14 [18] = assay: Potentiation of idelalisib-induced antileukemic activity against human MOLM-14 cells at 4.3 uM in presence of bone-marrow derived stromal cell-conditioned medium
CCRF-CEM [19] = assay: Potentiation of metformin -induced antileukemic activity against human CCRF-CEM cells at 4.3 uM in presence of bone-marrow derived stromal cell-conditioned medium
U-937 [20] = assay: Potentiation of luminespid-induced antileukemic activity against human U-937 cells at 4.3 uM in presence of bone-marrow derived stromal cell-conditioned medium
U-937 [21] = assay: Potentiation of vorinostat-induced antileukemic activity against human U-937 cells at 4.3 uM in presence of bone-marrow derived stromal cell-conditioned medium
MOLM-14 [22] = assay: Potentiation of idasanutlin-induced antileukemic activity against human MOLM-14 cells at 4.3 uM in presence of bone-marrow derived stromal cell-conditioned medium
U-937 [23] = assay: Potentiation of azacitidine-induced antileukemic activity against human U-937 at 4.3 uM in presence of bone-marrow derived stromal cell-conditioned medium
CCRF-CEM [24] = assay: Potentiation of azacitidine-induced antileukemic activity against human CCRF-CEM cells at 4.3 uM in presence of bone-marrow derived stromal cell-conditioned medium
MOLM-14 [25] = assay: Potentiation of MK2206-induced antileukemic activity against human MOLM-14 cells at 4.3 uM in presence of bone-marrow derived stromal cell-conditioned medium
CCRF-CEM [26] = assay: Potentiation of crenolatinib-induced antileukemic activity against human CCRF-CEM cells at 4.3 uM in presence of bone-marrow derived stromal cell-conditioned medium
U-937 [27] = assay: Potentiation of clofarabine-induced antileukemic activity against human U-937 cells at 4.3 uM in presence of bone-marrow derived stromal cell-conditioned medium
CCRF-CEM [28] = assay: Potentiation of etoposide-induced antileukemic activity against human CCRF-CEM cells at 4.3 uM in presence of bone-marrow derived stromal cell-conditioned medium
CCRF-CEM [29] = assay: Potentiation of daunorubicine-induced antileukemic activity against human CCRF-CEM cells at 4.3 uM in presence of bone-marrow derived stromal cell-conditioned medium
CCRF-CEM [30] = assay: Potentiation of SGI-1027-induced antileukemic activity against human CCRF-CEM cells at 4.3 uM in presence of bone-marrow derived stromal cell-conditioned medium
U-937 [31] = assay: Potentiation of afatinib-induced antileukemic activity against human U-937 cells at 4.3 uM in presence of bone-marrow derived stromal cell-conditioned medium
MOLM-14 [32] = assay: Potentiation of 17AAG-induced antileukemic activity against human MOLM-14 cells at 4.3 uM in presence of bone-marrow derived stromal cell-conditioned medium
U-937 [33] = assay: Potentiation of AT9283-induced antileukemic activity against human U-937 cells at 4.3 uM in presence of bone-marrow derived stromal cell-conditioned medium
U-937 [34] = assay: Potentiation of sunitinib-induced antileukemic activity against human U-937 cells at 4.3 uM in presence of bone-marrow derived stromal cell-conditioned medium
MOLM-14 [35] = assay: Potentiation of bleomycine-induced antileukemic activity against human MOLM-14 cells at 4.3 uM in presence of bone-marrow derived stromal cell-conditioned medium
CCRF-CEM [36] = assay: Potentiation of AG-221-induced antileukemic activity against human CCRF-CEM cells at 4.3 uM in presence of bone-marrow derived stromal cell-conditioned medium
MOLM-14 [37] = assay: Potentiation of niotinib-induced antileukemic activity against human MOLM-14 cells at 4.3 uM in presence of bone-marrow derived stromal cell-conditioned medium
U-937 [38] = assay: Potentiation of tipifarnib-induced antileukemic activity against human U-937 cells at 4.3 uM in presence of bone-marrow derived stromal cell-conditioned medium
MOLM-14 [39] = assay: Potentiation of SGI-1776-induced antileukemic activity against human MOLM-14 cells at 4.3 uM in presence of bone-marrow derived stromal cell-conditioned medium
CCRF-CEM [40] = assay: Potentiation of alisertib-induced antileukemic activity against human CCRF-CEM cells at 4.3 uM in presence of bone-marrow derived stromal cell-conditioned medium
U-937 [41] = assay: Potentiation of AGI-5198-induced antileukemic activity against human U-937 cells at 4.3 uM in presence of bone-marrow derived stromal cell-conditioned medium

Measured: Activity

CC(=O)N1CCc2c(sc3nc(SCC(=O)Nc4cccnc4C)n(Cc4ccco4)c(=O)c23)C1
inactive: all assays above
